Test results reported in PubChem BioAssay (NCI).
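Tested at 5 concentrations; 48 h exposure; 96-well plates; endpoints linearly interpolated, else capped at highest concentration. GI50: concentration for 50% inhibition of growth. TGI marks complete inhibition of growth.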

Legend:
Assay in all cases: NCI tumour cell line growth inhibition, 48 h
[1] = system: A549 NSCLC
[2] = system: ACHN renal
[3] = system: BT-549 breast
[4] = system: CCRF-CEM leukemia
[5] = system: HCC-2998 colon
[6] = system: HCT-116 colon
[7] = system: HL-60(TB) leukemia
[8] = system: HOP-62 NSCLC
[9] = system: HS 578T breast
[10] = system: HT29 colon
[11] = system: KM12 colon
[12] = system: MCF7 breast
[13] = system: MDA-MB-231 breast
[14] = system: MOLT-4 leukemia
[15] = system: NCI-H226 lung
[16] = system: NCI-H23 lung
[17] = system: NCI-H460 lung
[18] = system: NCI/ADR-RES ovarian
[19] = system: OVCAR-5 ovarian
[20] = system: PC-3 prostate
[21] = system: RPMI-8226 leukemia
[22] = system: SF-268 CNS
[23] = system: SF-295 CNS
[24] = system: SK-MEL-28 melanoma
[25] = system: SK-OV-3 ovarian
[26] = system: SN12C renal
[27] = system: SNB-19 CNS
[28] = system: SNB-75 CNS
[29] = system: SR leukemia
[30] = system: SW-620 colon
[31] = system: T-47D breast
[32] = system: TK-10 renal
[33] = system: UACC-257 melanoma

`ClCCN(CCCl)Cc1ccc(Nc2ccnc3cc(Cl)ccc23)cc1` showed a GI50 [1] of 1110 nM, a TGI [1] of 5080 nM and a GI50 [2] of 548 nM. The TGI [2] was > 100000 nM, the GI50 [3] was 2120 nM and the TGI [3] was 6040 nM. For the same molecule, the GI50 [4] was 265 nM, the TGI [4] was 2990 nM and the GI50 [5] was 1410 nM. The TGI [5] was 2760 nM, the GI50 [6] was 1560 nM and the TGI [6] was > 100000 nM. For the same molecule, the GI50 [7] was 403 nM, the TGI [7] was 3070 nM and the GI50 [8] was 1340 nM. It also gave a TGI [8] of 5160 nM, a GI50 [9] of 2920 nM and a TGI [9] of 8380 nM. It also gave a GI50 [10] of 1280 nM, a TGI [10] of 4730 nM and a GI50 [11] of 2070 nM. For the same molecule, the TGI [11] was 5570 nM, the GI50 [12] was 588 nM and the TGI [12] was 9340 nM. The GI50 [13] was 1660 nM, the TGI [13] was 3490 nM and the GI50 [14] was 416 nM. For the same molecule, the TGI [14] was 2780 nM, the GI50 [15] was 1410 nM and the TGI [15] was 3780 nM. It also gave a GI50 [16] of 1330 nM, a TGI [16] of 4520 nM and a GI50 [17] of 402 nM. For the same molecule, the TGI [17] was 10700 nM, the GI50 [18] was 2170 nM and the TGI [18] was 7360 nM. It also gave a GI50 [19] of 2570 nM, a TGI [19] of 6660 nM and a GI50 [20] of 1570 nM. For the same molecule, the TGI [20] was 5710 nM, the GI50 [21] was 1720 nM and the TGI [21] was 5410 nM. It also gave a GI50 [22] of 1180 nM, a TGI [22] of 5680 nM and a GI50 [23] of 2080 nM. For the same molecule, the TGI [23] was 6980 nM, the GI50 [24] was 2150 nM and the TGI [24] was 5310 nM. For the same molecule, the GI50 [25] was 1440 nM, the TGI [25] was 4520 nM and the GI50 [26] was 480 nM. The TGI [26] was 4020 nM, the GI50 [27] was 1890 nM and the TGI [27] was 6730 nM. For the same molecule, the GI50 [28] was 1340 nM, the TGI [28] was 3720 nM and the GI50 [29] was 269 nM. For the same molecule, the TGI [29] was 2780 nM, the GI50 [30] was 1350 nM and the TGI [30] was 14600 nM. It also gave a GI50 [31] of 1090 nM, a TGI [31] of 3690 nM and a GI50 [32] of 2420 nM. The TGI [32] was 6220 nM, the GI50 [33] was 1900 nM and the TGI [33] was 5710 nM.
